This is an account of results in ChEMBL document CHEMBL5518179, “Resveratrol-derived inhibitors of the E3 ubiquitin ligase PELI1 inhibit the metastasis of triple-negative breast cancer” (Eur J Med Chem, 2024).

The structures appear in SMILES notation.

The target in the first experiment is T1, E3 ubiquitin-protein ligase pellino homolog 1 (Homo sapiens, UniProt Q96FA3).
T1 sequence (Q96FA3 whole entry): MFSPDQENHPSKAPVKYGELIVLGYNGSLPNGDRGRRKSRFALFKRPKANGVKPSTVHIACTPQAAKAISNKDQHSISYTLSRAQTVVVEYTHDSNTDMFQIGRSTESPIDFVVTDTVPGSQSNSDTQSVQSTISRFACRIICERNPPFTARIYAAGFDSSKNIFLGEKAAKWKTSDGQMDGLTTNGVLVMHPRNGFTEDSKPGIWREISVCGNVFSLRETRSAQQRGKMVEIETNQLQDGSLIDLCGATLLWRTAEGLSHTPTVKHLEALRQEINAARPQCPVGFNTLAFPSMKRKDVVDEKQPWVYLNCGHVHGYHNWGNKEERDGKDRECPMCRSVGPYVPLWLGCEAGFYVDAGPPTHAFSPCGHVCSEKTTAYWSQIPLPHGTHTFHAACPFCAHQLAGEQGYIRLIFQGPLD
The experiment in a line: Binding affinity to PELI1 FHA domain (unknown origin) expressed in Escherichia coli BL21(DE3) competent cell measured after 1 min by fluorescence quenching assay.
Details: not given; call rule not given here
Usually Kd stands for the constant that tells how readily two partners part at equilibrium. For the compound `NC(=O)/C=C/c1ccc(/C=C/c2cc(O)cc(O)c2)cc1`, the Kd entry is given as “Not Active”.

Take `O=C(/C=C/c1ccc(/C=C/c2cc(O)cc(O)c2)cc1)N1CCCCC1`: the Kd result was “Not Active”.

For `O=[N+]([O-])c1cccc(-c2ccc(/C=C/c3cc(O)cc(O)c3)cc2)c1`, the Kd result is “Not Active”.

As for `Oc1cc(O)cc(/C=C/c2ccc(-c3ccsc3)cc2)c1`, the Kd result is recorded as “Not Active”.

Regarding `Oc1cc(O)cc(/C=C/c2ccc(-c3ccccc3)cc2)c1`, the Kd entry was “Not Active”.

As for `Oc1cc(O)cc(/C=C/c2ccc(-c3cccc(O)c3)cc2)c1`, the Kd result is listed as “Not Active”.

In the case of `C/C=C/C(=O)Nc1ccc(/C=C/c2cc(O)cc(O)c2)cc1`, the Kd entry was “Not Active”.

Consider `O=C(/C=C/c1ccccc1)Nc1ccc(O)c(/C=C/c2cc(O)cc(O)c2)c1`, for which the Kd result was “Not Active”.

`CNC(=O)/C=C/c1ccc(/C=C/c2cc(O)cc(O)c2)cc1`: the Kd result is “Not Active”.

Turning to `CCCNC(=O)/C=C/c1ccc(/C=C/c2cc(O)cc(O)c2)cc1`, the Kd entry is given as “Not Active”.

In the case of `Oc1ccc(-c2ccc(/C=C/c3cc(O)cc(O)c3)cc2)cc1`, the Kd entry is reported as “Not Active”.

Take `Oc1cc(O)cc(/C=C/c2ccc(-c3ccoc3)cc2)c1`: the Kd entry is on record as “Not Active”.

`O=C(/C=C/c1ccccc1)Nc1ccc(/C=C/c2cc(O)cc(O)c2)cc1`: the dissociation constant Kd result is on record as “Not Active”.

For `CN(C)C(=O)/C=C/c1ccc(/C=C/c2cc(O)cc(O)c2)cc1`, the Kd result is recorded as “Not Active”.

The experiment is the same for the next values; noted with them: read-out: Kd.
Take `CNC(=O)/C=C/c1ccc(O)c(/C=C/c2cc(O)cc(O)c2)c1`: the Kd was 59.9 µM.

For `CCCNC(=O)/C=C/c1cc(/C=C/c2cc(O)cc(O)c2)ccc1O`, the Kd is 44.4 µM.

As for `C/C=C/C(=O)Nc1ccc(O)c(/C=C/c2cc(O)cc(O)c2)c1`, the Kd stood at 64.3 µM.

Consider `CNC(=O)/C=C/c1ccccc1`, for which the Kd is 212 µM.

For the compound `C/C=C/C(=O)Nc1cc(O)ccc1/C=C/c1cc(O)cc(O)c1`, the Kd worked out at 86.9 µM.

On to `CNC(=O)/C=C/c1cc(O)ccc1/C=C/c1cc(O)cc(O)c1`, for which the Kd worked out at 39.3 µM.

Consider `O=C(/C=C/c1ccc(O)c(/C=C/c2cc(O)cc(O)c2)c1)N1CCCCC1`, for which the Kd is 26.9 µM.

Regarding `NC(=O)/C=C/c1ccc(O)c(/C=C/c2cc(O)cc(O)c2)c1`, the Kd was found to be 55.7 µM.

Consider `CN(C)C(=O)/C=C/c1cc(O)ccc1/C=C/c1cc(O)cc(O)c1`, for which the Kd turned out to be 104 µM.

Turning to `NC(=O)/C=C/c1cc(O)ccc1/C=C/c1cc(O)cc(O)c1`, the Kd stood at 40.1 µM.

`O=C(/C=C/c1cc(O)ccc1/C=C/c1cc(O)cc(O)c1)N1CCCCC1`: the Kd was determined as 96.3 µM.

Take `O=c1ccc2ccc(O)c(O)c2o1` [DAPHNETIN]: the Kd amounted to 336 µM.

For `COc1cc(C=O)ccc1O` [VANILLIN], the dissociation constant (Kd) came out at 228 µM.

For the compound `O=C(/C=C/c1ccccc1)Nc1cc(/C=C/c2cc(O)cc(O)c2)ccc1O`, the Kd is 124 µM.

Take `C/C=C/C(=O)Nc1cc(/C=C/c2cc(O)cc(O)c2)ccc1O`: the Kd was found to be 126 µM.

On to `Oc1ccc(/C=C/c2cc(O)cc(O)c2)cc1` [RESVERATROL], for which the Kd came to 125 µM.

Turning to `O=C(Nc1ccccc1)c1cccnc1` [NICOTINANILIDE], the Kd stood at 336 µM.

For `O=C(/C=C/c1ccccc1)Nc1cc(O)ccc1/C=C/c1cc(O)cc(O)c1`, the Kd came out at 51.5 µM.

Take `CNC(=O)/C=C/c1cc(/C=C/c2cc(O)cc(O)c2)ccc1O`: the Kd was determined as 42.3 µM.

Regarding `CCCNC(=O)/C=C/c1cc(O)ccc1/C=C/c1cc(O)cc(O)c1`, the equilibrium dissociation constant (Kd) amounted to 70.1 µM.

As for `O=C(/C=C/c1cc(/C=C/c2cc(O)cc(O)c2)ccc1O)N1CCCCC1`, the Kd was 37.9 µM.
